According to article PMC10017155 (Aging and Disease, 2023):
Peptide text beside a SMILES is read from it.

Columns and labels:
Aβ16 = assay: NMR titration, Aβ16 with HAEE and Zn2+; assay type: binding; conditions: 278 K, pH 6.8, Zn2+
Experimental: Peptides Aβ16, H6R-Aβ16 and isoD7-Aβ16 at the concentration of 0.2 - 8mM were dissolved in 10-20 mM bis-Tris-d19 (2,2-Bis(hydroxymethyl)-2,2′,2"-nitrilotrie-thanol-d19 with 98% ^2D enrichment) buffer solution (pH 6.8). Sodium salt of 3-(trimethylsilyl) propionic-2,2,3,3-d4 acid (DSS) at a concentration of 10-20 μM was added as the standard. NMR spectra were measured at 278 K in 90% H2O/10% D2O with Bruker AVANCE 600 MHz spectrometer equipped with triple resonance (^1H, ^13C and ^15N) pulsed field z gradient probe. 1D NMR spectra were processed and analyzed using the Mnova software (Mestrelab Research, Spain). In order to monitor peptide-peptide interactions NMR titration experiments were carried out. […] 1D spectra were recorded for each titration point.

C. elegans CL2120 = assay: Paralysis assay in C. elegans CL2120; assay type: in vivo; conditions: for Mean fraction of paralyzed: Aβ42 or isoD7-Aβ42 40 μM, HAEE 4 mM, 25°C, mean ± SD of 3 experiments
Experimental: (§1) C. elegans CL2120 (dvIs14 [(pCL12) unc-54::beta 1-42 +(pCL26) mtl-2::GFP]) and C. elegans CL2122 (dvIs15 [(pPD30.38) unc-54(vector) + (pCL26) mtl-2::GFP]) strains were obtained from the Caenorhabditis Genetics Center. The worms were handled according to standard methods without FUDR [18]. E. coli OP50 bacteria were grown overnight in Luria-Bertani broth and 50µl were spread atop NGM or NGMZn plates. NGMZn has 20μM ZnSO4. Seeded plates were incubated at 30°C for ~16 hours and then for 1-2 hours at 15 or 25°C before worms were transferred. Lifespan and paralysis experiments (see below) were performed at 25°C for enhanced expression of Aβ. This temperature is standard when studying the effects of Aβ on C. elegans CL2120 strain [19].
Then, nematodes were transferred to Petri plates with NGM or NGMZn and OP-50, placed in a temperature-controlled incubator at 25°C. On the next day, worms were transferred onto similar media with a bacterial substrate and paralyzed nematodes were counted at equal time intervals. […] For the paralysis experiments, we chose the days where we could clearly distinguish between paralysis and mortality. This conformed to the third and fourth days of their adult life. While at least three repeated trials were conducted, each experiment was performed using at least 100 worms. Details regarding repeated experiments and amounts of animals used for experiments are summarized in Supplementary Table 2. Mean fraction of paralyzed worms was compared between groups with two-way ANOVA, accounting for age and treatment. Post-hoc analysis was performed with the Tukey test. Statistical analysis was performed with GraphPad Prism 9.1 software.

C. elegans CL2122 = assay: Lifespan analysis, C. elegans CL2122 (transgenic control); assay type: in vivo; conditions: for Increase/decrease in lifespan: vs control of same repeat
Experimental: as §1
Nematodes were purified from unwanted microflora by the alkaline hypochlorite method, grown to the L4 stage at 15°C on NGM plates with bacterial lawn. […] Further, all contents were transferred to Petri plates with NGM or NGMZn with OP50 and placed in a temperature-controlled incubator at 25°C. Next day, worms were transferred onto similar media with a bacterial substrate and the lifespan was determined at 25°C (Supplementary Tables 3, 4).
Lifespans were monitored at 25°C as described previously. All experiments were repeated at least three times and ≈130 worms were used for each experiment. Details regarding repeated experiments and amounts of animals used for experiments are summarized in Supplementary Tables 3, 4. In all cases, stage L4 worms were used at t = 0 for lifespan analyses and worms were transferred every other day to new agar plates. […] Escaped animals or animals with internal hatching were not included in lifespan calculation. Data was analyzed and Boltzmann sigmoid survival curves generated using the SciDAVis statistical analysis software package. Mean lifespans were compared in Microsoft Excel using the Student t test, applying one-tailed distribution and two-sample equal variance. All lifespan plots represent the composites of all independent experiments tabulated in Supplementary Tables 3, 4. Mean percentage change ±SD of lifespan after treatment, relative to untreated control are indicated in each graph in the same color as the curve.

transgenic mice = conditions: cited from earlier work
Description: The development of AD comprises a cascade of pathogenic processes in brain tissue. Some of the major elements of this cascade are the aggregation of beta-amyloid (Aβ) with the formation of neurotoxic oligomers, hyperphosphorylation of tau, and neuroinflammation. […] In the sporadic form of AD, accounting for 95% of disease cases, the molecular triggers for the pathological cascade remain unknown. […] We hypothesized that the contribution of isoD7-Aβ to the development of AD is based on the formation of zinc-bound complexes that promote pathological aggregation of Aβ (Fig. 1A). […] Interaction of HAEE with beta-amyloid. (A) A model for the contribution of isoD7-Aβ to AD pathology, and the possible ways of preventing its deleterious effects. Aβ spontaneously converts into isoD7-Aβ, which is accumulated over age, likely due to reduced Aβ clearance. Isomerized Aβ promotes AD pathology, potentially via formation of Zn-bound complexes serving as the seeds for a generation of neurotoxic oligomers. Treatment with anti-isoAβ antibodies is a promising therapeutic strategy already showing effectiveness in AD model mice ^9.

[1] = CL2122, NGM (no Zn), replicate 1
[2] = CL2122, NGM (no Zn), replicate 2
[3] = CL2122, NGM (no Zn), replicate 3

Which results are given for CC(=O)N[C@@H](Cc1c[nH]cn1)C(=O)N[C@@H](C)C(=O)N[C@@H](CCC(=O)O)C(=O)N[C@@H](CCC(=O)O)C(N)=O [HAEE, Ac-HAEE-NH2] (Ac-HAEE-NH2)?
Signal at 0.2 ppm (characteristic of the dimeric form of the Aβ metal binding domain) (Aβ16; 1H NMR): eliminated the signal; Zinc-dependent dimerization of Aβ16 (Aβ16; NMR): inhibits; Mean fraction of paralyzed (C. elegans CL2120; A3 (3 days old), NGM (no Zn)): 5.5±0.35%; Fraction of paralyzed (C. elegans CL2120; A3 (3 days old), NGM (no Zn), replicate 1): 5.5%; Fraction of paralyzed (C. elegans CL2120; A3 (3 days old), NGM (no Zn), replicate 2): 5.2%; Fraction of paralyzed (C. elegans CL2120; A3 (3 days old), NGM (no Zn), replicate 3): 5.9%; Mean fraction of paralyzed (C. elegans CL2120; A4 (4 days old), NGM (no Zn)): 10.5±0.55%; Fraction of paralyzed (C. elegans CL2120; A4 (4 days old), NGM (no Zn), replicate 1): 9.9%; Fraction of paralyzed (C. elegans CL2120; A4 (4 days old), NGM (no Zn), replicate 2): 10.9%; Mean fraction of paralyzed (C. elegans CL2120; A4 (4 days old), NGMZn (ZnSO4 20 μM)): 9.5±0.65%; Fraction of paralyzed (C. elegans CL2120; A4 (4 days old), NGMZn, replicate 1): 10.2%; Fraction of paralyzed (C. elegans CL2120; A4 (4 days old), NGMZn, replicate 2): 9.5%; Fraction of paralyzed (C. elegans CL2120; A4 (4 days old), NGMZn, replicate 3): 8.9%; Effect of HAEE on isoD7-Aβ42/Zn2+-accelerated paralysis (C. elegans CL2120; HAEE 4 mM + isoD7-Aβ42 40 μM, NGMZn): suppresses this effect; Effect of HAEE itself on lifespan (C. elegans CL2122; CL2122, HAEE 4 mM): no effect; Mean survival (C. elegans CL2122; CL2122, NGM (no Zn), Aβ42 or isoD7-Aβ42 40 μM, HAEE 4 mM, 25°C, mean ± SD of 3 experiments): 9.07 ± 0.25 days; 50% survival (C. elegans CL2122; [1]): 8.8 days; 50% survival (C. elegans CL2122; [2]): 9.3 days; 50% survival (C. elegans CL2122; [3]): 9.1 days; Mean increase/decrease in lifespan (C. elegans CL2122; CL2122, NGM (no Zn), vs control NGM, mean ± SD of 3 experiments): 0.03±1.89%; Increase/decrease in lifespan (C. elegans CL2122; [1]): 1.15%; Increase/decrease in lifespan (C. elegans CL2122; [2]): 1.09%; Increase/decrease in lifespan (C. elegans CL2122; [3]): -2.15%; Effect on lifespan (C. elegans CL2122; CL2122, NGM, without Zn2+, 25°C): do not affect; 50% survival (C. elegans CL2122; CL2122, NGMZn, replicate 1): 8.8 days; 50% survival (C. elegans CL2122; CL2122, NGMZn, replicate 2): 9.1 days; 50% survival (C. elegans CL2122; CL2122, NGMZn, replicate 3): 8.9 days; Mean increase/decrease in lifespan (C. elegans CL2122; CL2122, NGMZn, vs control NGMZn, mean ± SD of 3 experiments): -1.05 ±2.87%; Increase/decrease in lifespan (C. elegans CL2122; CL2122, NGMZn, replicate 1): 1.15%; Increase/decrease in lifespan (C. elegans CL2122; CL2122, NGMZn, replicate 2): 0%; Increase/decrease in lifespan (C. elegans CL2122; CL2122, NGMZn, replicate 3): -4.3%; Amyloid accumulation in animal models of AD (transgenic mice): hamper amyloid accumulation
